In PubChem BioAssay (NCI):
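Each compound was tested at five concentrations against cells in 96-well plates for 48 hours. GI50 = concentration required for 50% inhibition of growth. The concentration for full growth arrest is given as TGI.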

What was measured:
Experiment in all cases: NCI-60 cell line screen, 48 h
[1] = system: OVCAR-8 ovarian
[2] = system: SW-620 colon
[3] = system: SF-539 CNS
[4] = system: SN12C renal
[5] = system: MOLT-4 leukemia
[6] = system: SF-268 CNS
[7] = system: SK-MEL-2 melanoma

SMILES | TGI [1] [µM] | TGI [2] [µM] | TGI [3] [µM] | TGI [4] [µM] | TGI [5] [µM] | TGI [6] [µM] | TGI [7] [µM] | GI50 [1] [µM] | GI50 [2] [µM] | GI50 [3] [µM] | GI50 [4] [µM] | GI50 [5] [µM] | GI50 [6] [µM] | GI50 [7] [µM]
C[C@@H]1OC(=O)N2CCCC(=C3SCCCS3)C12 (some centres undefined) | > 100 | > 100 | > 100 | > 100 | > 100 | > 100 | > 100 | – | – | – | – | – | – | –
O=[N+]([O-])c1ccc(C=NC2CCCCC2)cc1 | > 100 | > 100 | > 100 | > 100 | > 100 | > 100 | > 100 | – | – | – | – | – | – | –
CN(C)CCNC(=O)c1cccc2ccc(-c3ccncc3)nc12 | > 100 | 18.1 | 9.64 | 15.4 | 1.37 | 21.7 | 13.3 | – | – | – | – | – | – | –
COC1(OC)CC2OC1C1N=NN(C(=O)OC(C)(C)C)C21 (centres undefined) | – | > 100 | > 100 | > 100 | > 100 | > 100 | > 100 | – | – | – | – | – | – | –
CC(SC(=S)N1CCOCC1)c1cc2oc(=O)n(C)c2cc1Cl (centres undefined) | > 100 | > 10 | > 100 | > 100 | > 100 | > 100 | > 100 | – | – | – | – | – | – | –
CCC[CH2][Sn]1([CH2]CCC)[O]C(=O)CN=Cc2c(ccc3ccccc23)[O]1 | > 100 | 0.417 | > 100 | 1.39 | 1.14 | 1.18 | 0.687 | > 100 | 0.184 | 1.51 | 0.374 | 0.319 | 0.351 | 0.251
O=C(O)C(CS)Nc1c2ccccc2nc2ccccc12 (centres undefined) | > 100 | > 100 | > 100 | > 100 | > 100 | > 100 | > 100 | – | – | – | – | – | – | –
COc1ccc(NC(=O)CC(=O)N/N=C/c2ccc(N(CCC#N)S(C)(=O)=O)cc2)cc1 | > 100 | > 100 | > 100 | > 100 | > 100 | > 100 | > 100 | – | – | – | – | – | – | –
CC(C)(C)c1cc(CCC(=O)Nc2ccc(Cl)cc2)nc(NC#N)n1 | > 100 | > 100 | > 100 | – | > 100 | > 100 | > 100 | – | – | – | – | – | – | –
C/C(O)=C(\N=O)C(=O)Nc1ccc(Cl)cc1Cl | > 100 | > 100 | > 100 | > 100 | > 100 | > 100 | > 100 | – | – | – | – | – | – | –
CCOC(=O)/C(=C\c1ccccc1)C(=O)O | > 100 | > 100 | > 100 | > 100 | > 100 | > 100 | > 100 | – | – | – | – | – | – | –
NC(=O)COC(=O)c1c(Cl)nc2sccn12 | > 100 | > 64.7 | > 100 | > 100 | > 100 | > 100 | > 100 | – | – | – | – | – | – | –
O=C(N/C(=C\c1cccc([N+](=O)[O-])c1)c1nc2ccc([N+](=O)[O-])cc2[nH]1)c1ccccc1 | > 100 | > 100 | > 100 | > 100 | 51.4 | > 100 | 61 | – | – | – | – | – | – | –
O=C(O)CCSC(=O)Nc1ccc([N+](=O)[O-])cc1 | > 100 | > 100 | > 100 | > 100 | > 100 | > 100 | > 100 | – | – | – | – | – | – | –
O=C(CCN(C(=O)O)S(=O)(=O)c1ccc(NC(=O)c2ccccc2)cc1)NC1CCCCC1 | > 100 | 33.1 | > 100 | > 100 | 45.9 | > 100 | > 100 | – | – | – | – | – | – | –
CCN(CC)C(c1ccc(N(C)C)cc1)C(c1ccc(N(C)C)cc1)N(CC)CC (centres undefined) | > 73 | > 73 | > 73 | > 73 | > 73 | > 73 | > 73 | – | – | – | – | – | – | –
COc1ccc2nc3c(C(=O)NCCN(C)C)cccc3nc2c1 | > 100 | 81.6 | 10.9 | 22.5 | > 100 | 48.5 | 21.8 | – | – | – | – | – | – | –
O=C(CC1(O)C(=O)Nc2c(Cl)ccc(Cl)c21)c1ccc(F)cc1 (centres undefined) | > 100 | > 100 | – | > 100 | 95.6 | > 100 | > 100 | – | – | – | – | – | – | –
CCc1ccccc1NC(=O)C1=C(C)NC(C)=C(C(=O)Nc2ccccc2CC)C1c1ccc2c(c1)OCO2 | > 100 | > 100 | 45.8 | > 100 | > 100 | > 100 | 53.1 | – | – | – | – | – | – | –
Nc1c(-c2ccc(Cl)cc2)[n+]([O-])c2ccccc2[n+]1[O-] | > 100 | > 100 | > 100 | > 100 | > 100 | > 100 | > 100 | – | – | – | – | – | – | –
